{"source": "ChEMBL document CHEMBL1201862", "about": "“PubChem BioAssay data set” (2004)", "key": {"Bcl-2-like protein 10": {"biological_target": "Bcl-2-like protein 10 (Homo sapiens, UniProt Q9HD36)", "sequence (Q9HD36 whole entry)": "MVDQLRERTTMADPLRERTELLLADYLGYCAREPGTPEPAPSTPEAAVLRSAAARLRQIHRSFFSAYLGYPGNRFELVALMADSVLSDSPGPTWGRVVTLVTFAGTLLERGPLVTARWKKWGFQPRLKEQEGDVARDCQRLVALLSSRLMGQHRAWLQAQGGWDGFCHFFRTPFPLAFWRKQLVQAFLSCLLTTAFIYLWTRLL", "experiment": "Concentration-response of Bcl-B inhibitors by biochemical FP with TR3 (AID 1243)", "assay_type": "functional"}, "[1]": {"experiment": "A Cell Based Secondary Assay To Explore Cytotoxicity of Compounds that Sensitize Mycobacterium Tuberculosis to Beta-Lactam Antibiotics.", "assay_type": "functional"}, "[2]": {"experiment": "CCR5-tropic HIV-1 fusion blockers – cell-based, CCR5-tropic Env, dose response (AID 2279)", "assay_type": "functional"}, "[3]": {"biological_target": "T1, Induced myeloid leukemia cell differentiation protein Mcl-1 (Homo sapiens, UniProt Q07820)", "T1 sequence (Q07820 whole entry)": "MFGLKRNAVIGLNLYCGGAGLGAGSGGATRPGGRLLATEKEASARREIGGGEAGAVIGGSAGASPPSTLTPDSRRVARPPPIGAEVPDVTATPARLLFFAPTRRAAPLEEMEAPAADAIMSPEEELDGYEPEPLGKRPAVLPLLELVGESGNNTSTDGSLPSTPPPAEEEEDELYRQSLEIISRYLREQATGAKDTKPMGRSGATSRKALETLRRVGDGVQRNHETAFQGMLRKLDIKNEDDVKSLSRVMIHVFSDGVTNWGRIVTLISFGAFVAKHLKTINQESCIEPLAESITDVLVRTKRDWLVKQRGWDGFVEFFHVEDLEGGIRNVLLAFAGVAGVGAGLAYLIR", "experiment": "blockers of MCL1 binding to BIM peptide – biochemical, fluorescence polarization, BIM-BH3 peptide, 1536-well, dose response (AID 2217)"}, "Bcl-2-like protein 1": {"biological_target": "Bcl-2-like protein 1 (Homo sapiens, UniProt Q07817)", "sequence (Q07817 whole entry)": "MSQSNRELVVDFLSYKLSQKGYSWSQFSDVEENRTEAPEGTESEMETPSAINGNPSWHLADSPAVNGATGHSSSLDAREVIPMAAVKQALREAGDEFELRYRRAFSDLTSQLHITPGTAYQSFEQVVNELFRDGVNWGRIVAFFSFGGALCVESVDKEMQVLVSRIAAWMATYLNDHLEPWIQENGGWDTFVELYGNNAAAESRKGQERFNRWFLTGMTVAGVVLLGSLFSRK", "experiment": "blockers of BCLXL peptide binding – biochemical, fluorescence polarization, 1536-well, selectivity assay for MCL1 inhibitor project, dose response (AID 2218)"}, "[4]": {"biological_target": "T1, Induced myeloid leukemia cell differentiation protein Mcl-1", "assay_type": "functional"}, "HEK293": {"system": "HEK293", "experiment": "Fluorescence-based counterscreen for potentiators or agonists of NPY-Y2: cell-based high-throughput dose response assay to identify inhibitors of cyclic nucleotide gated ion channel (CNGC) activity. In this assay, the parental HEK293 cell line transfected with a cyclic-nucleotide gated ion channel (CNGC)-based cAMP sensor is used to measure inhibition of isoproterenol-induced CNGC activity by test compound.", "assay_type": "functional", "conditions": "Homo sapiens"}, "[5]": {"biological_target": "T2, Neuropeptide Y receptor type 2 (Homo sapiens, UniProt P49146)", "T2 sequence (P49146 whole entry)": "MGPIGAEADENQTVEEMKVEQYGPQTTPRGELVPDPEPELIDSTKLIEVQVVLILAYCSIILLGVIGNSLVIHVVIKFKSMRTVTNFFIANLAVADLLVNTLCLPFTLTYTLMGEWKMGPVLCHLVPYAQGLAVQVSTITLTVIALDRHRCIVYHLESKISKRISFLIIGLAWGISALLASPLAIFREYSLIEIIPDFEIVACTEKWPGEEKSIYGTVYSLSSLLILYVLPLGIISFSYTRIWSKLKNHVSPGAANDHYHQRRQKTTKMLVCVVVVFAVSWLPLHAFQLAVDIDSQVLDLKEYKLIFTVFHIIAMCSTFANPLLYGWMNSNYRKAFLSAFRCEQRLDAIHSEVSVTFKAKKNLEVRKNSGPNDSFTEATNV", "experiment": "Fluorescence-based cell-based high-throughput dose response assay for agonists of NPY-Y2. [Related pubchem assays: 1703 (Screening assay (CNGC inhibitors).), 1359 (Screening assay (NPY-Y2 potentiators or agonists).), 1304 (Screening assay (NPY-Y1 potentiators or agonists).), 1710 (Screening assay (NPY-Y2 agonists).), 1791 (Summary AID.)]", "assay_type": "functional"}, "[6]": {"biological_target": "T3, Neuropeptide Y receptor type 1 (Homo sapiens, UniProt P25929)", "T3 sequence (P25929 whole entry)": "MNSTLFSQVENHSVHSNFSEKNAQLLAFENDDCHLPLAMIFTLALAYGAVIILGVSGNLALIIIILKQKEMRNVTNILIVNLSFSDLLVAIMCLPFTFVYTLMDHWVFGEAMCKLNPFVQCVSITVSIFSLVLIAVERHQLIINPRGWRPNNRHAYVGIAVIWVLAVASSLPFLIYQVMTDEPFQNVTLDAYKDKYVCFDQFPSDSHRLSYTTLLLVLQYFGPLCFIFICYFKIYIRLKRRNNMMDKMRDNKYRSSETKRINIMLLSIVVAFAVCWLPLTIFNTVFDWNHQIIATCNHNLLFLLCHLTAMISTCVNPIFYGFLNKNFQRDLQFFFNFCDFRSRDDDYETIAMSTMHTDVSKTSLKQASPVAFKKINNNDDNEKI", "experiment": "Fluorescence-based counterscreen for agonists of NPY-Y2: cell-based high-throughput dose response assay for agonists of NPY-Y1.", "assay_type": "functional"}, "[7]": {"experiment": "mitochondrial function rescue without frataxin homolog – Friedreich's ataxia, plus single-dose screen, dose response (AID 1465);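 also: yeast depleted of Yfh1p frataxin homolog grown on glycerol needing respiration; WST-1 tetrazolium dye reduction as measure of cellular dehydrogenase metabolic activity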", "assay_type": "functional"}, "[8]": {"biological_target": "T4, Replicative DNA helicase DnaB (Mycobacterium tuberculosis, UniProt P9WMR3)", "T4 sequence (P9WMR3 whole entry)": "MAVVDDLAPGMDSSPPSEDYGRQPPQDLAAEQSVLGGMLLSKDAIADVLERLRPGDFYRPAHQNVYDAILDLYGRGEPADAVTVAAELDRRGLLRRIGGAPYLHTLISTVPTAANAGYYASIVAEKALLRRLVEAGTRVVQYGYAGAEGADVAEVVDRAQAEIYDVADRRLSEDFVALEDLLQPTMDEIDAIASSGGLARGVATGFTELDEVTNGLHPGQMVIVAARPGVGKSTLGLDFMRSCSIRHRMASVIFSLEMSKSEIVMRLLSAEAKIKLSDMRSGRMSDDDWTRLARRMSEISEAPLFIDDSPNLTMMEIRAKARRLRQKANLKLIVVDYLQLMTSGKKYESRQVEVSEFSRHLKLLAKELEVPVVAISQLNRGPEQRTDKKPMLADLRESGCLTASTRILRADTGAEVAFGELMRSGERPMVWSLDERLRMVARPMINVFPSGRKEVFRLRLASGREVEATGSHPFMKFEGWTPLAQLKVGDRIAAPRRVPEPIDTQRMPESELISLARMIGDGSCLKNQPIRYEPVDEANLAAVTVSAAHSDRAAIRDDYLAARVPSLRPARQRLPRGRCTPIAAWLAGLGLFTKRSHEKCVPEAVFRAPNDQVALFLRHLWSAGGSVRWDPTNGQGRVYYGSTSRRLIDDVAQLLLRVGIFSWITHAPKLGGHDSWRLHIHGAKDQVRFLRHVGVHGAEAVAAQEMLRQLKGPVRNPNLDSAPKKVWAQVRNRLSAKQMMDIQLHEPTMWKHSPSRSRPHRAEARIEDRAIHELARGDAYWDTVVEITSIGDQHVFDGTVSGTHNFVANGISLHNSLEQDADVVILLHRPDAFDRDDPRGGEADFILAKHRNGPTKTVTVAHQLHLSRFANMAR", "experiment": "DnaB intein splicing inhibitors, dose response, biochemical, cell-free fluorescence (AID 449749)", "assay_type": "functional"}, "Protein RecA": {"biological_target": "T5, Protein RecA (Mycobacterium tuberculosis, UniProt P9WHJ3)", "T5 sequence (P9WHJ3 whole entry)": "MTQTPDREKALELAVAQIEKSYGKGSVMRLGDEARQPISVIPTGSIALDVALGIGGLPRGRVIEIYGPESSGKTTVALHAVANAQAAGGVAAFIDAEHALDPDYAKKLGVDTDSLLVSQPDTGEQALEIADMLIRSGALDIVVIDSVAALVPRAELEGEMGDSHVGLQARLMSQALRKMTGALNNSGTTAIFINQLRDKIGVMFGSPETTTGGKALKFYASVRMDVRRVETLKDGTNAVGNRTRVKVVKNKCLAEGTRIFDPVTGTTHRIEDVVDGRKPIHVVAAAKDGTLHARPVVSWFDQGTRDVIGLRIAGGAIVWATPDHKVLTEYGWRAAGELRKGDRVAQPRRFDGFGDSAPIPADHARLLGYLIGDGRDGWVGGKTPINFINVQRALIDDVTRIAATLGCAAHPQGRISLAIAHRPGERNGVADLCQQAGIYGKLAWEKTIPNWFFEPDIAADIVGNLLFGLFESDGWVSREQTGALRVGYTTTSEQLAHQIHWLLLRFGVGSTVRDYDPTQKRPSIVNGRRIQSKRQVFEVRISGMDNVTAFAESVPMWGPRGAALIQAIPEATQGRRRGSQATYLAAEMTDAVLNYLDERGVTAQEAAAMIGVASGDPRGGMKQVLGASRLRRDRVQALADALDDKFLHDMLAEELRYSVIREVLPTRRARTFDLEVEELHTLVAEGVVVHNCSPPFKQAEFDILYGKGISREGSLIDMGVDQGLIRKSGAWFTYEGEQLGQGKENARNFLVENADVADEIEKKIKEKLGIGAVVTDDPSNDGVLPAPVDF", "experiment": "Fluorescence Cell-Free Homogeneous Dose Retest to Identify Inhibitors of RecA-Intein Splicing Activity. [Related pubchem assays (depositor defined):AID2097, AID2223, AID489010, AID492950]", "assay_type": "functional"}, "[9]": {"biological_target": "Glyceraldehyde-3-phosphate dehydrogenase (Homo sapiens, UniProt P04406)", "sequence (P04406 whole entry)": "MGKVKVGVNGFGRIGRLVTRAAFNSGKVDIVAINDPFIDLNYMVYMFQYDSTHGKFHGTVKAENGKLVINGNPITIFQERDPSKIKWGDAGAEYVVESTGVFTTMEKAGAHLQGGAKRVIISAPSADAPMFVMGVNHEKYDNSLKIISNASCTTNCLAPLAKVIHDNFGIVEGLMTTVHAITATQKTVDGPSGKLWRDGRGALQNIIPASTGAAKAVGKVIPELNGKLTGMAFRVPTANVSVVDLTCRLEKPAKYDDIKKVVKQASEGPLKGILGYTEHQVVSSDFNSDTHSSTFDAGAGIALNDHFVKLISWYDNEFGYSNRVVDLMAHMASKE"}, "[10]": {"biological_target": "Heat shock cognate 71 kDa protein (Homo sapiens, UniProt P11142)", "sequence (P11142 whole entry)": "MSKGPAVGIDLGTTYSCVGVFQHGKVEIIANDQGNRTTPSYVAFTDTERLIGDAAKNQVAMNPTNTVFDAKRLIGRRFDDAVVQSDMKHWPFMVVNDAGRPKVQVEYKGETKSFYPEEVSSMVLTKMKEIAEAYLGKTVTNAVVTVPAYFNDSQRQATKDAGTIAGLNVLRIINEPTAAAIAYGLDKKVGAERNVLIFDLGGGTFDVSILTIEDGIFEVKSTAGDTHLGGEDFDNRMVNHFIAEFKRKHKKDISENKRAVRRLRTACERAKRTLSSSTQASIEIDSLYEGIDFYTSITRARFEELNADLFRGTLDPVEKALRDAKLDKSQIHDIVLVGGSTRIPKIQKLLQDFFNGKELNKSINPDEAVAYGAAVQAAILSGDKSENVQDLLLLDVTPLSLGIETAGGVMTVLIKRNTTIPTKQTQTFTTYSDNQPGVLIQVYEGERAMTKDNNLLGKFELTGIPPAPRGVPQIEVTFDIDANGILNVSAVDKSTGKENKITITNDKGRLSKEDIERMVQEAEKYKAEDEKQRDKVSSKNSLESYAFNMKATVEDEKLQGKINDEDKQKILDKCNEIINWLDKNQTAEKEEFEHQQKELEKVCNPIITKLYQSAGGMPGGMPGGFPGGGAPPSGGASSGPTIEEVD", "experiment": "In Vitro Hsc70 Dose Response Fluorescence Polarization Assay. [Related pubchem assays: 1072 ]"}, "[11]": {"biological_target": "Heat shock 70 kDa protein 1A (Homo sapiens, UniProt P0DMV8)", "sequence (P0DMV8 whole entry)": "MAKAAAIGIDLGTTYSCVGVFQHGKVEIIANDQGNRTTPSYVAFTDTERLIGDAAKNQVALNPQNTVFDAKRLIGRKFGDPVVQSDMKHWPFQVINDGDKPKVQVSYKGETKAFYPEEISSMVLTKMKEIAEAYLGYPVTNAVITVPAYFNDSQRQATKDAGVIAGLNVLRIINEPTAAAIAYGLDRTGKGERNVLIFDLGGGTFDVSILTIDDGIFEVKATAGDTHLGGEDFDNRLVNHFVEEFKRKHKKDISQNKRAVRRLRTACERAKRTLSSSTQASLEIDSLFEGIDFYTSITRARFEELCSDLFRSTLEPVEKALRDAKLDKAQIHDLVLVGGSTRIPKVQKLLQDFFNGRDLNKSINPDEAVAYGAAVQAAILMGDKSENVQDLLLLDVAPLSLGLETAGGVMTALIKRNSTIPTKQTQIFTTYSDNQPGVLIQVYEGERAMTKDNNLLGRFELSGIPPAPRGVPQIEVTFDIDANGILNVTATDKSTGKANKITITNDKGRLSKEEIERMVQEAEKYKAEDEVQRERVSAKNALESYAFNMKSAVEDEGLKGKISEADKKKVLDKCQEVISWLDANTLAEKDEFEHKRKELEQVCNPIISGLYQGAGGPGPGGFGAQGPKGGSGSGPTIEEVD", "experiment": "inhibition of Hsp70 binding activity – biochemical, fluorescence polarization, SAR follow-up (AID 1072)"}}, "note": "The source made the active and inactive calls."}
{"smiles": "O=C(O)c1cccc2c1NC(c1cccc(Cl)c1Cl)C1CC=CC21", "note": "(stereo not given)", "values": [{"measurement": "EC50", "setting": "Bcl-2-like protein 10", "value": "2.67 µM (active)"}]}
{"smiles": "O=[N+]([O-])c1cc(Cl)cc(/C=N/NC(=S)Nc2cc(S(=O)(=O)N3CCOCC3)ccc2Cl)c1O", "values": [{"measurement": "CC50", "setting": "[1]", "value": "25.7 µM (active)"}, {"measurement": "IC50", "setting": "[2]", "value": "25.1 µM (active)"}, {"measurement": "IC50", "setting": "[3]", "value": "49.3 µM (not active)"}, {"measurement": "IC50", "setting": "Bcl-2-like protein 1", "value": "> 109 µM (not active)"}, {"measurement": "IC50", "setting": "[4]", "value": "2.19 µM (active)"}]}
{"smiles": "CCCOc1ccc(/C=N/Nc2ccc(C(=O)O)cc2)c(OCCC)c1", "values": [{"measurement": "EC50", "setting": "HEK293", "value": "11.4 µM (not active)"}, {"measurement": "EC50", "setting": "[5]", "value": "26.3 µM (not active)"}, {"measurement": "EC50", "setting": "[6]", "value": "16.5 µM (not active)"}]}
{"smiles": "O=C1C=Cc2ccccc2C1=O", "note": "[1,2-NAPHTHOQUINONE]", "values": [{"measurement": "EC50", "setting": "[7]", "value": "> 100 µM (active)"}, {"measurement": "AC50", "setting": "[8]", "value": "5.81 µM (active)"}, {"measurement": "EC50", "setting": "Protein RecA", "value": "9.13 µM (active)"}]}
{"smiles": "Nc1ncnc2c1ncn2[C@@H]1O[C@H](COP(=O)(O)OP(=O)(O)OP(=O)(O)O)[C@@H](O)[C@H]1O", "note": "[ADENOSINE TRIPHOSPHATE]", "values": [{"measurement": "IC50", "setting": "[9]", "value": "> 100 µM (not active)"}, {"measurement": "IC50", "setting": "[10]", "value": "17.3 µM (active)"}, {"measurement": "IC50", "setting": "[11]", "value": "3.37 µM (active)"}]}
